Results taken from patent EP4711372A1, “CRYSTAL FORM OF HETEROCYCLIC COMPOUND, SALT THEREOF, CRYSTAL FORM OF SALT THEREOF, AND USE” (Hubei Bio-Pharmaceutical Industrial Technological Institute …, priority 2023, dated 2024).

Experiments:
[1] = target: T1, 15-PGDH (Homo sapiens, UniProt P15428); experiment: 15-PGDH enzyme inhibition assay (fluorescence, NAD+/PGE2); assay type: biochemical; settings: 15-PGDH inhibition
T1 construct: purchased R&D Systems 5660-DH-010
T1 sequence (P15428 1-266): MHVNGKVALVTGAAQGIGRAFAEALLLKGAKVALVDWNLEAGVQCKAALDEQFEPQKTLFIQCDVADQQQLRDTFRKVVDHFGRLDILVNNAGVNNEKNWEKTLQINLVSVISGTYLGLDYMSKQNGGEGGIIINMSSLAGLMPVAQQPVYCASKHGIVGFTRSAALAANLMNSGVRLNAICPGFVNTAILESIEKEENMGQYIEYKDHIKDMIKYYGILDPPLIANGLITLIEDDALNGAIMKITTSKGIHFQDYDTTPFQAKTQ
Method: 15-PGDH (R&D Systems, Cat. No. 5660-DH-010) was prepared to twice the final concentration, i.e., 30 nM, using Assay Buffer (50 mM Tris-HCl, pH 7.5, 0.01% Tween 20 by volume). 15-PGDH was then added to a 384-well white plate (Cisbio Bioassays, Cat. No. 66PL384025) at 8 µL/well. Negative control wells (with Assay Buffer only and without enzyme) were set. The compound was then prepared to 4 times the final concentration using Assay Buffer, i.e., diluted 3-fold to 10 concentrations starting from 4000 nM. The compound was added to the above white plate at 4 µL/well, mixed well, centrifuged at 1000 rpm for 1 minute, and incubated at 25°C for 10 minutes. Both positive control wells (with 15-PGDH only) and negative control wells (without 15-PGDH) were set. A mixture of NAD^+ (Select, Cat. No. S2518) and PGE2 (R&D Systems, Cat. No.:2296110) was then prepared using Assay Buffer. NAD^+ and PGE2 were prepared to four times their final concentrations, i.e., 2 mM and 0.12 mM, respectively, using Assay Buffer. The mixture was then added to the above white plate at 4 µL/well, mixed well, centrifuged at 1000 rpm for 1 minute, and incubated at 25°C for 30 minutes for the reaction. The fluorescence was measured at an excitation wavelength of 340 nm and an emission wavelength of 485 nm using a TECAN SPARK 20M microplate reader. The IC50 value was calculated using four-parameter fitting with GraphPad Prism 8.0.

[2] = test system: mouse IPF prevention model; experiment: Efficacy test on mouse IPF prevention model (Bleomycin-induced); assay type: in vivo, mice; settings: mean; compound I-3B 2.5 mg/kg bid, oral gavage, 21 consecutive days
Method: Male mice were adaptively fed for 1 to 2 weeks and after reaching the standard weight (25 g), the IPF model (idiopathic pulmonary fibrosis model) was induced with a certain dose of Bleomycin. On the day of modeling, the animals were randomly divided into a model group and an administration group according to their weight, in which the administration groups were administered Nintedanib (60 mg/kg, once a day (qd)) and compound I-3B obtained in Example 1 (2.5 mg/kg, twice a day (bid)) by oral gavage for 21 consecutive days while the vehicle control group was administered blank vehicle. During the administration period, the animals were weighed every 3 days. At the end of the last day of administration, the animals were euthanized. The lungs were removed from the thyroid cartilage (without perfusion), slowly perfused with 10% formalin until both lungs were filled, and fixed in 10% formalin 5 to 10 times the volume of the tissues after the trachea was ligated. The left lung tissues were embedded in paraffin wax, sectioned, and stained with HE and Masson Trichrome. The sections were subjected to panoramic scanning using a Hamamatsu NanoZoomer Digital Pathology (S210) slide scanner for pathological analysis.

[3] = test system: mouse IPF treatment model; experiment: Efficacy test on mouse IPF treatment model (Bleomycin-induced); assay type: in vivo, mice; settings: mean, oral gavage, 14 consecutive days from day 7
Method: Male mice were adaptively fed for 1 to 2 weeks and after reaching the standard weight (25 g), the IPF model (idiopathic pulmonary fibrosis model) was induced with a certain dose of Bleomycin. On the day of modeling, the animals were randomly divided into a model group and an administration group according to their weight, in which the administration groups were administered Nintedanib (60 mg/kg, qd), low-dose compound I-3B obtained in Example 1 (1 mg/kg, bid), and high-dose compound I-3B obtained in Example 1 (2.5 mg/kg, bid) by oral gavage for 14 consecutive days starting from day 7 while the vehicle control group was administered blank vehicle. During the administration period, the animals were weighed twice a week. At the end of the last day of administration, the animals were euthanized. The lungs were removed from the thyroid cartilage (without perfusion), slowly perfused with 10% formalin until both lungs were filled, and fixed in 10% formalin 5 to 10 times the volume of the tissues after the trachea was ligated. The left lung tissues were embedded in paraffin wax, sectioned, and stained with HE and Masson Trichrome. The sections were subjected to panoramic scanning using a Hamamatsu NanoZoomer Digital Pathology (S210) slide scanner for pathological analysis.

[4] = Pharmacokinetics in mice (oral gavage); assay type: in vivo; settings: mouse, plasma, male CD-1 mice, 10 mg/kg
Method: The pharmacokinetic properties of the compounds obtained in Example 1 in mice were determined with reference to the following experimental methods.
Three male CD-1 mice were administered by oral gavage at a dose of 10 mg/kg, and the vehicle was 5% DMSO + 10% Solutol + 85% Saline. The mice were fasted overnight, and the time points of blood collection were before administration and at 15 minutes, 30 minutes, 1 hour, 2 hours, 4 hours, 8 hours, and 24 hours after administration. Blood samples were centrifuged at 6,800 g for 6 minutes at 2 to 8°C, and plasma was collected and stored at - 80°C. 10 µL of plasma at each time point was taken and added with 200 µL of methanol containing 100 ng/mL internal standard. The mixture was vortexed, mixed well, and centrifuged at 18,000 g for 7 minutes at 2 to 8°C. 200 µL of the mixture was transferred to a 96-well injection plate for LC-MS/MS quantitative analysis. The main pharmacokinetic parameters were analyzed using WinNonlin 7.0 software with non-compartmental model.

[5] = test system: IBD in mice; experiment: Efficacy on IBD in mice (DSS-induced); assay type: in vivo, C57BL/6 mice; settings: for CL (colon length) / CL/CW/BW / CW (colon weight) / DAI / body weight / inflammatory cell infiltration score (histopathological examination of colon tissues) / tissue injury score (histopathological examination of colon tissues): compared with G2 model group; for Colon length CL / Colon weight CW: day 0 to day 9, necropsy day 10
Method: The mice in G2 to G6 were given 2% DSS aqueous solution on day 0 to day 6, normal water on […], vehicle/positive/test substance on day 0 to day 9, and euthanized on day 10 for necropsy. Colon weight (CW) and colon length (CL) were measured and colon tissues […] were subjected to histopathological examination.

## Cn1nc2cc(N3C[C@H]4C[C@H]4c4cc(C(=O)N5CCC(F)(F)CC5)cnc43)ccn2c1=O (single isomer, unassigned) [compound I-3B]
[1]
  IC50: 3.58 nM
[2]
  Total pulmonary fibrosis score: 3.34
[3]; high-dose 2.5 mg/kg bid
  Total pulmonary fibrosis score: 2.6
[3]; low-dose 1 mg/kg bid
  Total pulmonary fibrosis score: 2.74
[4]
  AUC(0-t): 33200 ng·h/mL
  Cmax: 4480 ng/mL
[5]; 2.5 mg/kg and 5 mg/kg, efficacy better than that of the positive control
  IBD symptoms and tissue injury in mice: significantly improve
[5]; G4, 2.5 mg/kg-bid
  CL (colon length): significant increase
  CL/CW/BW: significant decrease
  CW (colon weight): significant decrease
  DAI: significant decrease
  body weight: increase
  inflammatory cell infiltration score (histopathological examination of colon tissues): significant decrease
  tissue injury score (histopathological examination of colon tissues): significant decrease
[5]; G5, 5 mg/kg-bid
  CL (colon length): significant increase
  CL/CW/BW: significant decrease
  CW (colon weight): significant decrease
  DAI: significant decrease
  body weight: significant increase
  inflammatory cell infiltration score (histopathological examination of colon tissues): significant decrease
  tissue injury score (histopathological examination of colon tissues): significant decrease
[5]; high-dose group (5 mg/kg)
  Colon length CL: 6.50 cm
  Colon weight CW: 0.16 g
[5]; low-dose group (2.5 mg/kg)
  Colon length CL: 6.67 cm
  Colon weight CW: 0.17 g
